Assays:
Format in all cases: physicochemical
[1] = Limiting solubility in phosphate buffer, measured in the presence of undissolved solid; details: 22°C; for Grenzlöslichkeit: pH 7,4, in the presence of undissolved solid
Solubility in acetone = details: solvent acetone (for the 1,5-Hydrat also other lower ketones)
[2] = Hygroscopicity / water uptake on storage
Description: So nimmt es bei Temperaturen von 20 bzw. 30°C und einer relativen Luftfeuchtigkeit von 80 % bei der Lagerung kein Wasser auf (keine Umwandlung in das 1,5-Hydrat!).

For COc1ccnc(C[S+]([O-])c2nc3ccc(OC(F)F)cc3[nH]2)c1OC (stereo not shown) [1,5-Hydrat, 5-Difluormethoxy-2-[(3,4-dimethoxy-2-pyridyl)methylsulfinyl]-1H-benzimidazol-Natriumsalz-1,5-hydrat, reference compound], which Grenzlöslichkeit [1] is on record?
The Grenzlöslichkeit was 6,2 x 10^-4 mol/l.

What about the “Löslichkeit in Aceton” value (Solubility in acetone) of the same molecule?
The value was “leichtlöslich”.

Which Hygroskopizität [2] does the source give for COc1ccnc(C[S+]([O-])c2nc3ccc(OC(F)F)cc3[nH]2)c1OC (stereo not shown) [Monohydrat, 5-Difluormethoxy-2-[(3,4-dimethoxy-2-pyridyl)methylsulfinyl]-1H-benzimidazol-Natriumsalz-monohydrat] here?
Its Hygroskopizität is “nicht hygroskopisch”.

And the “Wasseraufnahme bei der Lagerung” value ([2]; 20 or 30°C, relative humidity 80 %, storage)?
The value was “kein Wasser”.

And the Grenzlöslichkeit [1]?
The Grenzlöslichkeit was 0.0013 mol/L.

What about the “Grenzlöslichkeit relative to the 1,5-Hydrat” value ([1]; pH 7,4, ratio versus the 1,5-Hydrat) of the same molecule?
Its value is “etwa doppelt so große”.

What about the “Löslichkeit in Aceton” value (Solubility in acetone) of the same molecule?
Its value is “schwer löslich”.
